Laboratory results taken from US20140329776A1, “Mitochondria-Targeted Antioxidants for Treatment of Age-Related Brain Disorders” (MITOTECH S.A., priority 2011, published 2014).

Tests used:
Wistar rats = assay: elevated plus maze, age-dependent behavioral defects; assay type: in vivo, rat; conditions: 14-month-old rats
Excerpt: Rats of 3 months and 14 months old were investigated. An elevated plus maze with two open and two closed arms was used. Young animals placed in the maze center entered both types of arms with equal probability (FIGS. 2A and 2C). However, the 14-month-old rats preferred to enter the closed arms only (FIG. 2D), the probability of entering the open arms being extremely low. If, nevertheless, a 14-month-old rat entered an open arm, the animal immediately left this arm (FIG. 2B). […] This difference was also abolished by SkQ1 (Stefanova, et al., J. Alzheimer's Dis. 21:479-491 (2010)).

[1] = test system: chronically alcoholised rats; assay: Porsolt forced swimming test of chronically alcoholised rats; assay type: in vivo, rat; conditions: SkQ1 250 nM solution orally every two days for 20 days; p<0.05
Description: FIG. 11 is a graphic representation showing behavior parameters in the Porsolt forced swimming test of chronically alcoholised rats in % to intact control. (*−p<0.05 SKQ-1 to negative control); and
Male albino rats had free access to a 15% ethanol solution, as well as to food and water. After 6 months of alcoholisation, animals with average consumption more than 11 ml of 15% ethanol solution were divided into two even groups and subjected to the following treatment. The Negative Control group (n=16) (chronically alcoholised rats) were orally administered 1 ml per kg of isotonic 0.9% NaCl solution every two days for 20 days during alcohol deprivation. The SkQ1 group (n=17) (chronically alcoholised rats) were orally administered 1 ml per kg of SkQ1 250 nM solution every two days for 20 days during alcohol deprivation. The Intact Control group (n=10) (animals had no previous contact with ethanol) were orally administered 1 ml per kg of normal physiological solution every two days for 20 days.
After this course of drug administration, the effect on behavioral parameters was observed using the open field test, the elevated plus maze test, and the Porsolt forced swimming test.

[2] = 250 nmol/kg daily in food for 10 weeks

## CC1=C(C)C(=O)C(CCCCCCCCCC[P+](c2ccccc2)(c2ccccc2)c2ccccc2)=CC1=O [SkQ1, plastoquinonyl decyltriphenyl-phosphonium]
Wistar rats; 250 nmol/kg body weight daily in food for 10 weeks
  age effect in elevated plus maze: completely reversed
Wistar rats; [2]
  probability of entering an open arm: as high as for young rats
  time spent in open arm: almost as long as for the young rodents
[1]
  immobilization time: less
